Data published in US20220251640A1, “METHODS OF DETERMINATION OF GENOME ARCHITECTURE AND EPIGENETIC PROFILE” (THE BROAD INSTITUTE, INC., priority 2019, published 2022).
Entries after “also recorded” stand apart in the source; their conditions may differ.

How the values were obtained:
Hap1 cells = experiment: Hi-Culfite on Hap1 cells treated with 5-azacytidine (methylation inhibition experiment); format: cell-based; details: for CpG C->T conversion: DMSO control 37.66%
Description: (§1) Hi-Culfite library construction (FIG. 1A) followed the initial steps of an in situ Hi-C protocol (8). One million cells were crosslinked with formaldehyde; chromatin was digested with a restriction enzyme; and the overhangs were filled in, incorporating a biotinylated nucleotide to mark the fragment ends after ligation. The DNA was then purified and sheared. Next, Applicants performed bisulfite conversion, which converted unmethylated cytosine residues into uracil but left methylated cytosine residues intact. Applicants captured the resulting single-stranded, biotin-marked ligation products on streptavidin beads. Finally, Applicants added adapters to the 3′ end, synthesized the second strand by primer extension, ligated adapters to the 3′ end of the 2nd strand, and PCR amplified with indexed primers.
(§2) Cell Culture: All commercial cell lines were cultured following vendors' recommendations to about 80% confluency before they were harvested and cross-linked in fresh complete medium. For methylation inhibition experiments, cultures of GM12878 (Coriell Institute) and Hap1 (Horizon) were grown for 8 days in medium supplemented with DMSO without drug or with 1 μM or 5 μM 5-azacytidine (Sigma Aldrich) solubilized in DMSO, refreshing the medium/drug every two days.
(§3) Library Construction: Hi-C libraries were prepared using the protocol described (8) Briefly, one million cells were crosslinked with 1% formaldehyde for 10 minutes at room temperature and then quenched with 0.2 M glycine solution. Cells were lysed and nuclei permeabilized with 0.5% SDS for 10 minutes at 62° C. Chromatin was digested with 100 U of MboI restriction enzyme (NEB). Ends of the restriction fragments were filled-in and labeled with a biotinylated nucleotide and then ligated. Nuclei were pelleted, proteins were digested with proteinase K, and crosslinks were reversed by heating at 68° C. overnight. DNA was sheared in a Covaris focused ultrasonicator to a length of 300-500 bp. Size-selected DNA was split for processing with two workflows—10% of the material was used for preparation of a regular Hi-C library (unconverted control) and 90% of the DNA was used for Hi-Culfite library construction. Hi-C libraries were finished by enriching for biotinylated ligation junctions through binding to T1 streptavidin beads (Thermo Fisher) and preparing the library for Illumina sequencing performing the end-repair, A-tailing and adapter ligation steps with DNA attached to the beads. Libraries were amplified directly off the beads and purified for subsequent Illumina sequencing.
DNA for Hi-Culfite was first treated with sodium bisulfite using EpiTect Fast bisulfite conversion kit (Qiagen) following the kit's instructions and extending each of the two 60° C. conversion incubations to 20 minutes. Converted DNA was purified without addition of an RNA carrier to the binding buffer. Biotinylated ligation junctions in purified bisulfite-converted DNA were captured on 15 μl C1 streptavidin beads (Thermo Fisher) in denaturing binding buffer (10 mM Tris pH 7.5; 5 mM EDTA; 500 mM LiCl; 0.5% Igepal CA630; 0.2% SDS; 4 M Urea) for 10 minutes at 55° C. DNA was washed twice with binding buffer at 55° C. and once with 10 mM Tris. […]
Methylation Track Generation with MethylDackel: Duplicate Hi-C contacts were marked as duplicates in the methylation BAM. Applicants then called the program Methyl Dackel extract with the flag “-F 1024”; this ignored duplicates reads but kept all other mapped reads with MAPQ ≥10. […]

GM12878 cells = experiment: Hi-Culfite on GM12878 cells treated with 5-azacytidine (methylation inhibition experiment); format: cell-based, human; details: for CpG C->T conversion: DMSO control 45.37%
Description: as §1, §2, §3
DNA for Hi-Culfite was first treated with sodium bisulfite using EpiTect Fast bisulfite conversion kit (Qiagen) following the kit's instructions and extending each of the two 60° C. conversion incubations to 20 minutes. Converted DNA was purified without addition of an RNA carrier to the binding buffer. Biotinylated ligation junctions in purified bisulfite-converted DNA were captured on 15 μl C1 streptavidin beads (Thermo Fisher) in denaturing binding buffer (10 mM Tris pH 7.5; 5 mM EDTA; 500 mM LiCl; 0.5% Igepal CA630; 0.2% SDS; 4 M Urea) for 10 minutes at 55° C. DNA was washed twice with binding buffer at 55° C. and once with 10 mM Tris. Beads were resuspended in 15 μl of 10 mM Tris, and libraries were detached from the beads by heating for 5 minutes at 95° C. After separating on a magnet, library construction for Illumina sequencing was performed on the supernatant containing ssDNA library using Accel-NGS Methyl-Seq kit (Swift Biosciences) following the kit's manual.
Methylation Track Generation with MethylDackel: Duplicate Hi-C contacts were marked as duplicates in the methylation BAM. Applicants then called the program Methyl Dackel extract with the flag “-F 1024”; this ignored duplicates reads but kept all other mapped reads with MAPQ ≥10. MethylDackel generated CpG methylation tracks, a cytosine coverage report, and an input file for the analysis program MethylKit26. […]

Nc1ncn([C@@H]2O[C@H](CO)[C@@H](O)[C@H]2O)c(=O)n1 [5-azacytidine]
impact on nuclear architecture / chromosome-level nuclear organization (contact maps, eigenvectors) (Hap1 cells; Hap1, 1 uM and 5 uM, 8 days, vs DMSO): did not discern an impact on nuclear architecture; also recorded: no effect on chromosome-level nuclear organization
CpG C->T conversion (Hap1 cells; Hap-1, 1 μM 5-azacytidine in DMSO, 8 days): 86.16%
CpG C->T conversion (Hap1 cells; Hap-1, 5 μM 5-azacytidine in DMSO, 8 days): 85.79%
genome-wide decline of methylation (on average) (Hap1 cells; HapI treated with 5-azacytidine, average stated jointly for GM12878 and HapI): 2 fold
looping signal by Aggregate Peak Analysis (Hap1 cells; HapI, increasing 5-azacytidine concentration): no significant changes in looping signal
CpG C->T conversion (GM12878 cells; GM12878, 1 μM 5-azacytidine in DMSO, 8 days): 69.46%
impact on nuclear architecture / chromosome-level nuclear organization (contact maps, eigenvectors) (GM12878 cells; GM12878, 1 uM and 5 uM, 8 days, vs DMSO): did not discern an impact on nuclear architecture; also recorded: no effect on chromosome-level nuclear organization
CpG C->T conversion (GM12878 cells; GM12878, 5 μM 5-azacytidine in DMSO, 8 days): 75.08%
looping signal by Aggregate Peak Analysis (GM12878 cells; GM12878, increasing 5-azacytidine concentration): no significant changes in looping signal
genome-wide decline of methylation (on average) (GM12878 cells; GM12878 treated with 5-azacytidine, average stated jointly for GM12878 and HapI): 2 fold
nucleosome occupancy and directional methylation asymmetry at CTCF motifs (aggregate methylation analysis) (GM12878 cells; increasing concentration of 5-azacytidine, GM12878 CTCF motifs): no changes to nucleosome occupancy and directional methylation asymmetry
